Reference: US20040209841A1, “Association compound of trehalose or maltitol with metal ion compound” (priority 2001, published 2004)
Like-named read-outs stand apart in the source and are kept apart here.

What was measured:
[1] = Change of solubility of metal ion compounds by the association with trehalose (precipitation of crystal); assay type: physicochemical
Description: The changes of solubility in water of trehalose and/or metal ion compounds were examined under coexistence of trehalose and metal ion compounds. […] Solutions prepared by dissolving the same amount of trehalose only or that of metal ion compounds only were prepared as controls. After dissolving the contents completely, all the beakers were allowed to stand at room temperature (25° C.) for 24 hours. Successively, precipitation of crystals was judged by macroscopic observation. In the case of precipitating crystals, the formed crystals were collected and analyzed for those component(s) by conventional method.

[2] = Suppressing effect on the deterioration of ascorbic acid under the presence of metal ion (degree of coloring); assay type: physicochemical; conditions: 50° C.; for Degree of coloring (Abs. at 420 nm) Preserved for 96 hrs: 14.8 mM AsA + 10 mM FeCl2 + 100 mM saccharide
Description: L-Ascorbic acid deteriorates rapidly by the oxidative degradation in the presence of iron and copper ions and causes the browning. The effects of trehalose and maltitol on the phenomenon were investigated as follows. Ten kinds of aqueous solutions having respective compositions described in Table 12 were prepared. Aqueous solutions of L-ascorbic acid alone or L-ascorbic acid and metal ion compounds were used as controls. The test solutions were prepared by adding trehalose or maltitol to the control solutions. Ten milliliters of each of these test and control solutions were placed into different 20 ml-vials and sealed. The vials were preserved at 50° C. The control and test solutions, containing ferrous chloride, and those containing ferric chloride or copper sulfate were preserved for 96 hours and 40 hours, respectively. After the preservation, the degree of coloring of each solution was measured. In the case of a control solution containing L-ascorbic acid alone, the degrees of coloring were measured at the preservation periods of 40 hours and 96 hours. The absorbance at 420 nm (within the visible light range) of each sample was measured as the degree of coloring.

[3] = pH 3.5
Description: Effects of trehalose, maltitol, and other saccharides on the solubilities of calcium-organic acid salts were investigated as follows. […] Successively, five grams of commercially available calcium DL-lactate pentahydrate or calcium gluconate monohydrate, used as calcium-organic acid salts, were added to each saccharide solution, followed by suspension. Thereafter, the pH of each solution was adjusted to 3.5, and the solution was filled up to give a volume of 50 ml with deionized water. After stirring at 25° C. for 16 hours, insoluble calcium-organic acid salts were removed by centrifuging (15,000 rpm for 30 minutes). The pHs of the resulting supernatants were measured. The calcium concentrations of the supernatant were measured using an atomic adsorption photometer described in Experiment 5. The solution prepared with no saccharide was also measured for calcium concentration in the same manner as control.

[4] = Suppressing effect on the oxidation of ferrous ion (Nitroso-DMAP method); assay type: physicochemical; conditions: for Amount of Fe2+ ion (mg/ml) After light-irradiation: 37° C. four hours, light of about 9,000 luxes, 5% (w/v) saccharide; for Amount of Fe2+ ion (mg/ml) Before light-irradiation: ferrous chloride 1% (w/v) as ferrous ion + 5% (w/v) saccharide
Description: Generally, ferrous ion (divalent, Fe^2+) and ferric ion (trivalent, Fe^3+) are known as ions of iron element. Ferrous ion is easily oxidized with light or heat and converted to ferric ion. Effects of trehalose and maltitol on the phenomenon were investigated as follows. An aqueous solution, comprising ferrous chloride (FeCl2) tetrahydrate corresponding to the amount of 1% (w/v) as ferrous ion, and comprising trehalose or maltitol corresponding to the amount of 5% (w/v), d.s.b., was prepared as a test solution. While, a solution, comprising ferrous chloride only with the same concentration to the test solution, was prepared as a control solution. After preparing the test and control solutions, small portions of which were sampled respectively, and the amount of ferrous ion was measured by the Nitroso-DMAP method described later. Successively, 10 ml each of the test and control solution was placed separately in a 20 ml-vial and sealed. After preserving these vials at 37° C. for four hours with irradiating a light of about 9,000 luxes, the amount of ferrous ion in each solution was measured by the Nitroso-DMAP method. Measurement by the Nitroso-DMAP method was carried out as follows. After diluting the test or control solution accurately by 100-fold, 0.5 ml of the dilute was placed in a 50 ml-volumetric flask. […] After the above procedure, the absorbance at 750 nm (within the visible light range) of the solution was measured. The standard solutions, prepared by diluting stepwise a ferrous chloride solution with known concentration, were used for the measurement in the same manner to obtain a standard curve for quantitative analysis. The amount of ferrous ion of the test or the control solution was determined with the standard curve.

[5] = Hygroscopicity (deliquescence) test; assay type: physicochemical; conditions: for Moisture content/g-sample: 25° C.
Description: A dried bittern powder was prepared by drying bittern solution in vacuo at 60° C. for 15 hours, pulverized, and dried in a usual manner for use as a control. The moisture content (weight of moisture per one gram of the sample) of each sample was measured by conventional drying loss method. […] The weight of the content in each cup was measured at the initiation of preservation (0 day preservation), and 1, 2, 4, and 7 days after the initiation. The amount of moisture per one gram of each at sample after 1 to 7 days preservation was calculated based on the assumption that the increased amount measured to that of 0 day preservation was the amount of moisture absorbed by each sample.

[6] = 0.1 mole metal ion compound only, 30 grams of water, 25° C. 24 hours
[7] = 14.8 mM AsA + 10 mM CuSO4 + 100 mM saccharide
[8] = 14.8 mM AsA + 10 mM FeCl3 + 100 mM saccharide

Compound: O.O.O.O.[Cl][Fe][Cl] [Ferrous chloride, ferrous chloride tetrahydrate]
- Precipitation of crystal In the absence of trehalose [1, 6]: Precipitated

Compound: O.O.O.O.[Cl][Mn][Cl] [Manganese chloride, manganese chloride tetrahydrate]
- Precipitation of crystal In the presence of trehalose ([1]; 0.1 mole metal ion compound + 0.1 mole trehalose, 30 grams of water, room temperature (25° C.) 24 hours, macroscopic observation): None
- Precipitation of crystal In the absence of trehalose [1, 6]: Precipitated

Compound: O.O.O.O.O.O.[Cl][Ni][Cl] [Nickel chloride, nickel chloride hexahydrate]
- Precipitation of crystal In the absence of trehalose [1]: Precipitated
- Precipitation of crystal In the presence of trehalose [1]: None

Compound: OC[C@@H](O)[C@@H](O[C@H]1O[C@H](CO)[C@@H](O)[C@H](O)[C@H]1O)[C@H](O)[C@@H](O)CO [Maltitol, maltitol]
- Degree of coloring (Abs. at 420 nm) Preserved for 40 hrs [2, 7]: 0.258
- Degree of coloring (Abs. at 420 nm) Preserved for 96 hrs [2]: 0.291
- Degree of coloring (Abs. at 420 nm) Preserved for 40 hrs [2, 8]: 0.198
- Relative conc. (%), Calcium gluconate [3]: 128%
- Relative conc. (%), Calcium lactate [3]: 123%
- increase of calcium concentration in the supernatant in comparison with control, calcium gluconate [3]: 28%
- increase of calcium concentration in the supernatant in comparison with control, calcium lactate [3]: 23%
- Amount of Fe2+ ion (mg/ml) After light-irradiation [4]: 4.3 mg/mL
- Amount of Fe2+ ion (mg/ml) Before light-irradiation [4]: 10.2 mg/mL

Compound: [Cl][Cu] [Cuprous chloride, cuprous chloride dihydrate]
- Precipitation of crystal In the absence of trehalose [1, 6]: Precipitated

Compound: O.O.[Ca+2].[Cl-].[Cl-] [CaCl2 · 2H2O, calcium chloride dihydrate]
- moisture content (weight of moisture per one gram of the sample) ([5]; before preservation, drying loss method): 0.245 g
- Moisture content/g-sample ([5]; relative humidity 33.0%, 0 day): 0.245 g
- Moisture content/g-sample ([5]; relative humidity 33.0%, 1 day): 0.289 g
- Moisture content/g-sample ([5]; relative humidity 33.0%, 2 days): 0.312 g
- Moisture content/g-sample ([5]; relative humidity 33.0%, 3 days): 0.343 g
- Moisture content/g-sample ([5]; relative humidity 33.0%, 7 days): 0.364 g
- Moisture content/g-sample ([5]; relative humidity 52.8%, 0 day): 0.245 g
- Moisture content/g-sample ([5]; relative humidity 52.8%, 1 day): 0.319 g
- Moisture content/g-sample ([5]; relative humidity 52.8%, 2 days): 0.359 g
- Moisture content/g-sample ([5]; relative humidity 52.8%, 3 days): 0.405 g
- Moisture content/g-sample ([5]; relative humidity 52.8%, 7 days): 0.430 g

Compound: OC[C@H]1O[C@H](O[C@H]2O[C@H](CO)[C@@H](O)[C@H](O)[C@H]2O)[C@H](O)[C@@H](O)[C@@H]1O [Trehalose, α,α-trehalose]
- Degree of coloring (Abs. at 420 nm) Preserved for 40 hrs [2, 7]: 0.311
- Degree of coloring (Abs. at 420 nm) Preserved for 96 hrs [2]: 0.380
- Degree of coloring (Abs. at 420 nm) Preserved for 40 hrs [2, 8]: 0.226
- Relative conc. (%), Calcium gluconate ([3]; 16 h, 100 mg/ml): 112%
- Relative conc. (%), Calcium lactate ([3]; 16 h, 100 mg/ml): 129%
- increase of calcium concentration in the supernatant in comparison with control, calcium gluconate ([3]; 16 h, 100 mg/ml): 12%
- increase of calcium concentration in the supernatant in comparison with control, calcium lactate ([3]; 16 h, 100 mg/ml): 29%
- Amount of Fe2+ ion (mg/ml) After light-irradiation [4]: 4.4 mg/mL
- Amount of Fe2+ ion (mg/ml) Before light-irradiation [4]: 10.1 mg/mL
